# Tests used:
# Conditions in all cases: 72 h
# Caco-2 [1] = test: relative viability EC50 (midpoint between 100% and the lowest measured viability); higher = less toxic
# Vero E6 [2] = test: as above
# HepG2 [3] = test: as above
# U2OS [4] = test: as above
# Calu-3 [5] = test: as above
# Caco-2 [6] = test: cell viability relative to DMSO; higher = less toxic
# Vero E6 [7] = test: as above
# HepG2 [8] = test: as above
# U2OS [9] = test: as above
# Calu-3 [10] = test: as above
# Caco-2 [11] = test: drug sensitivity score (DSS) for viability; higher = more toxic; extreme values may be limits of the assay
# Vero E6 [12] = test: as above
# HepG2 [13] = test: as above
# U2OS [14] = test: as above
# Calu-3 [15] = test: as above
SMILES,relative viability EC50 (Caco-2 [1]) [µM],relative viability EC50 (Vero E6 [2]) [µM],relative viability EC50 (HepG2 [3]) [µM],relative viability EC50 (U2OS [4]) [µM],relative viability EC50 (Calu-3 [5]) [µM],cell viability (Caco-2 [6]; 1 nM) [%],cell viability (Caco-2 [6]; 10 nM) [%],cell viability (Caco-2 [6]; 100 nM) [%],cell viability (Caco-2 [6]; 1000 nM) [%],cell viability (Caco-2 [6]; 10000 nM) [%],cell viability (Vero E6 [7]; 1 nM) [%],cell viability (Vero E6 [7]; 10 nM) [%],cell viability (Vero E6 [7]; 100 nM) [%],cell viability (Vero E6 [7]; 1000 nM) [%],cell viability (Vero E6 [7]; 10000 nM) [%],cell viability (HepG2 [8]; 1 nM) [%],cell viability (HepG2 [8]; 10 nM) [%],cell viability (HepG2 [8]; 100 nM) [%],cell viability (HepG2 [8]; 1000 nM) [%],cell viability (HepG2 [8]; 10000 nM) [%],cell viability (U2OS [9]; 1 nM) [%],cell viability (U2OS [9]; 10 nM) [%],cell viability (U2OS [9]; 100 nM) [%],cell viability (U2OS [9]; 1000 nM) [%],cell viability (U2OS [9]; 10000 nM) [%],cell viability (Calu-3 [10]; 1 nM) [%],cell viability (Calu-3 [10]; 10 nM) [%],cell viability (Calu-3 [10]; 100 nM) [%],cell viability (Calu-3 [10]; 1000 nM) [%],cell viability (Calu-3 [10]; 10000 nM) [%],drug sensitivity score (Caco-2 [11]),drug sensitivity score (Vero E6 [12]),drug sensitivity score (HepG2 [13]),drug sensitivity score (U2OS [14]),drug sensitivity score (Calu-3 [15])
CC[C@@]1(O)C(=O)OCc2c1cc1n(c2=O)Cc2cc3ccccc3nc2-1 [camptothecin],0.0939,0.324,0.027,0.891,0.159,100,87.6,56.4,9.4,25.5,94.9,96.4,68.7,37.4,4,87.8,63.4,36.7,6,1.4,95.8,101,86.5,52,3.7,97.9,88.4,59.8,40.4,14.2,21.3,15.9,28.8,11.3,17.1
COc1ccc(Nc2nccc(NCCO)n2)cc1 [cardiogenol-C],> 10,> 10,> 10,> 10,> 10,105,87.7,101,95.8,103,94.4,105,94.8,104,100,93.4,93.1,93.4,108,102,97.7,97.2,102,96.1,98.2,94.4,92.7,92.5,92.5,102,0,0,0,0,0
CC(C)(C)NCC(O)COc1cccc2c1CCC(=O)N2 (stereo not given) [carteolol],> 10,> 10,> 10,> 10,> 10,100,96.1,95.8,98.1,95.7,96.3,95.9,98.4,99,98.3,101,87.8,100,101,105,98.5,101,95.9,97.2,93.9,94.8,109,104,92.9,104,0,0,0,0,0
CO/N=C(\C(=O)N[C@@H]1C(=O)N2C(C(=O)[O-])=C(C[N+]3(C)CCCC3)CS[C@H]12)c1csc(N)n1 [cefepime],> 10,> 10,> 10,> 10,> 10,90.8,96.8,106,102,122,100,101,104,107,99.3,102,86,121,82.6,102,99.2,101,96.6,102,99.4,104,105,113,92.8,102,0,0,0,0,0
CO/N=C(\C(=O)N[C@@H]1C(=O)N2C(C(=O)OCOC(=O)C(C)(C)C)=C(C)CS[C@H]12)c1csc(N)n1 [cefetamet-pivoxil],> 10,> 10,> 10,> 10,> 10,108,96.5,105,99.7,97.9,91.5,103,89.5,91.7,108,102,113,90.9,97.8,93,102,93.5,99.6,104,99.5,104,93.2,102,114,103,0,0,0,0,0
CO[C@@]1(NC(=O)CSC[C@@H](N)C(=O)O)C(=O)N2C(C(=O)O)=C(CSc3nnnn3C)CS[C@@H]21 [cefminox],> 10,> 10,> 10,> 10,> 10,106,103,91.5,103,98.5,93.7,103,99.3,104,97.8,108,116,96.6,98.1,92.1,96.6,98.8,102,104,101,116,99.8,105,94.5,122,0,0,0,0,0
CCO/N=C(\C(=O)N[C@@H]1C(=O)N2C(C(=O)[O-])=C(Sc3nc(-c4cc[n+](C)cc4)cs3)CS[C@H]12)c1nsc(NP(=O)(O)O)n1 [ceftaroline-fosamil],> 10,> 10,> 10,> 10,> 10,94.2,101,89.4,105,93.2,106,99.6,107,97.9,102,116,95.2,105,101,104,103,106,99.5,107,102,116,109,98.4,106,98.6,0,0,0,0,0
